Experimental data from ChEMBL document CHEMBL1156528, “Acetyl-lysine analog peptides as mechanistic probes of protein deacetylases” (J Biol Chem, 2007).

Target: NAD-dependent protein deacetylase HST2 (Saccharomyces cerevisiae S288c) (UniProt P53686)
Test: Ratio of Vmax to Km for Saccharomyces cerevisiae Hst2

Sequence of NAD-dependent protein deacetylase HST2 (Saccharomyces cerevisiae S288c) (P53686 whole entry): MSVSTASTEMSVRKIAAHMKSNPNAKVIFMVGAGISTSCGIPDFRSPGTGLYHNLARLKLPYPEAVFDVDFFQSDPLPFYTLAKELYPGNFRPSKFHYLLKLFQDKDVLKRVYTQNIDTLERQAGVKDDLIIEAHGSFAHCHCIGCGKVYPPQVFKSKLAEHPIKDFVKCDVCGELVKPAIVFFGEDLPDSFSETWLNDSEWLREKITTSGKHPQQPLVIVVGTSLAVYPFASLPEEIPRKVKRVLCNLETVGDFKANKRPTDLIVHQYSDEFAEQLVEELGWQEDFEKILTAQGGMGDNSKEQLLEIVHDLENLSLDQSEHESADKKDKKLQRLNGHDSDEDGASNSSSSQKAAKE

Q: How did the Ratio turn out when `C[C@H](NC(=O)[C@H](CCCCNC(N)=O)NC(=O)CNC(=O)CNC(=O)[C@@H](NC(=O)[C@H](CO)NC(=O)[C@@H](N)CCCCN)[C@@H](C)O)C(=O)N1CCC[C@H]1C(=O)N[C@@H](CCCNC(=N)N)C(=O)N[C@@H](CCCCN)C(=O)N[C@@H](CCC(N)=O)C(=O)O` was run?
A: 7.4 ×10³ /M/s
